SMILES strings stand for the structures.

The experiment relates to LNCaP cells. Put plainly: LNCaP cell viability assay (MTS). The experiment is classed as cell-based. As to conditions: Homo sapiens, LNCaP, 48 h, LNCaP cell line. As for the experimental part: LNCaP cell line was used for the cell viability assay. LNCaP cells were plated in 96-well plates at a density of 5000 cells per well. After 24 hours of plating, the cells were treated with increasing doses of compound (e.g., compounds 1-269) ranging from 1 μM to 80 μM. Relative cell numbers were analyzed after 48 hours using 3-(4,5-dimethylthiazol-2-yl)-5-(3-carboxymethoxyphenyl)-2-(4-sulfophenyl)-2H-tetrazolium (MTS) assay (Promega) according to the manufacturer's instructions.
The cell viability data was analyzed with GraphPad Prism software. The values were log transformed and analyzed with non-linear regression (curve-fit) using log(inhibitor) vs. response-variable slope (four parameters) and constraining the bottom to equal zero. Unless otherwise indicated, the GI50 values provided in Table 113 correspond to the LNCaP cell viability assays.
What is called GI50 is the concentration at which growth is held to half of that of the control. `CCOC(=O)C(Cc1cc(Cl)sc1Cl)NS(=O)(=O)c1ccc(OC(F)(F)F)cc1` (stereo not shown) [Compound 42, Ethyl 3-(2,5-dichlorothiophen-3-yl)-2-((4-(trifluoromethoxy)phenyl)sulfonamido)propanoate] showed a GI50 of 57.8 µM.
With `CCOC(=O)[C@@H](Cc1ccc(OC)cc1)NS(=O)(=O)c1ccc(OC(F)(F)F)cc1` [Compound 43, Ethyl (R)-3-(4-methoxyphenyl)-2-((4-(trifluoromethoxy)phenyl)sulfonamido)propanoate], it took 72 µM to inhibit growth by half (GI50).
To `O=S(=O)(NC(Cc1cccc(Br)c1)CC(F)(F)F)c1ccc(OC(F)(F)F)cc1` (stereo not shown) [Compound 44, N-(1-(3-bromophenyl)-4,4,4-trifluorobutan-2-yl)-4-(trifluoromethoxy)benzenesulfonamide] belongs 59 µM; to `CCOC(=O)C(Cc1ccccc1Cl)NS(=O)(=O)c1ccc(OC(F)(F)F)cc1` (stereo not shown) [Compound 45, Ethyl 3-(2-chlorophenyl)-2-((4-(trifluoromethoxy)phenyl)sulfonamido)propanoate], 46 µM; to `CCOC(=O)CC(NS(=O)(=O)c1ccc(OC(F)(F)F)cc1)c1cccc(Br)c1` (stereo not shown) [Compound 46, Ethyl 3-(3-bromophenyl)-3-((4-(trifluoromethoxy)phenyl)sulfonamido)propanoate], 49 µM.
The value for `CCOC(=O)C(CC(C)CC)NS(=O)(=O)c1ccc(OC(F)(F)F)cc1` (stereo not shown) [Compound 47, Ethyl 4-methyl-2-((4-(trifluoromethoxy)phenyl)sulfonamido)hexanoate] was 70 µM; that for `CN(Cc1ccccc1Br)C(=O)CCNS(=O)(=O)c1ccc(OC(F)(F)F)cc1` [Compound 48, N-(2-bromobenzyl)-N-methyl-3-((4-(trifluoromethoxy)phenyl)sulfonamido)propenamide] was 43 µM.
`O=S(=O)(NCC1CCCCC1c1ccccc1)c1ccc(OC(F)(F)F)cc1` (stereo not shown) [Compound 49, N-((2-phenylcyclohexyl)methyl)-4-(trifluoromethoxy)benzenesulfonamide] had a GI50 of 39 µM.
To `O=S(=O)(NCCC(O)(C(F)(F)F)C(F)(F)F)c1ccc(OC(F)(F)F)cc1` [Compound 50, N-(4,4,4-trifluoro-3-hydroxy-3-(trifluoromethyl)butyl)-4-(trifluoromethoxy)benzenesulfonamide] belongs 71 µM.
To `O=S(=O)(NCCC(c1ccccc1)C(F)(F)F)c1ccc(OC(F)(F)F)cc1` (stereo not shown) [Compound 51, N-(4,4,4-trifluoro-3-phenylbutyl)-4-(trifluoromethoxy)benzenesulfonamide] belongs 55 µM.
To `CCC(C#N)Oc1cccc(CNS(=O)(=O)c2ccc(OC(F)(F)F)cc2)c1` (stereo not shown) [Compound 52, N-(3-(1-cyanopropoxy)benzyl)-4-(trifluoromethoxy)benzenesulfonamide] belongs 72 µM.
In turn, `COCCC1(CNS(=O)(=O)c2ccc(OC(F)(F)F)cc2)CCCCC1` [Compound 53, N-((1-(2-methoxyethyl)cyclohexyl)methyl)-4-(trifluoromethoxy)benzenesulfonamide] registered a GI50 of 66 µM.
To `CCCCN(CCNS(=O)(=O)c1ccc(OC(F)(F)F)cc1)Cc1cccc(Cl)c1` [Compound 54, N-(2-(butyl(3-chlorobenzyl)amino)ethyl)-4-(trifluoromethoxy)benzenesulfonamide] belongs 33 µM; to `CC(C)CCOc1ccccc1CCNS(=O)(=O)c1ccc(OC(F)(F)F)cc1` [Compound 55, N-(2-(isopentyloxy)phenethyl)-4-(trifluoromethoxy)benzenesulfonamide], 57 µM.
Take `O=S(=O)(NCC1(c2c(Cl)cccc2Cl)CCC1)c1ccc(OC(F)(F)F)cc1` [Compound 56, N-((1-(2,6-dichlorophenyl)cyclobutyl)methyl)-4-(trifluoromethoxy)benzenesulfonamide]: halving of growth (GI50) required 30 µM.
The value for `O=S(=O)(NCC1(c2cccc(C(F)(F)F)c2)CCC1)c1ccc(OC(F)(F)F)cc1` [Compound 57, 4-(trifluoromethoxy)-N-((1-(3-(trifluoromethyl)phenyl)cyclobutyl)methyl)benzenesulfonamide] was 38 µM; that for `CC(C)N(C)c1ccccc1CNS(=O)(=O)c1ccc(OC(F)(F)F)cc1` [Compound 58, N-(2-(isopropyl(methyl)amino)benzyl)-4-(trifluoromethoxy)benzenesulfonamide] was 20 µM; that for `O=S(=O)(NCc1ccccc1COC1CCCCC1)c1ccc(OC(F)(F)F)cc1` [Compound 59, N-(2-((cyclohexyloxy)methyl)benzyl)-4-(trifluoromethoxy)benzenesulfonamide] was 23 µM.
In the case of `Cc1ccc(C2(CNS(=O)(=O)c3ccc(OC(F)(F)F)cc3)CC2)c(C)c1` [Compound 60, N-((1-(2,4-dimethylphenyl)cyclopropyl)methyl)-4-(trifluoromethoxy)benzenesulfonamide], the concentration for 50% growth inhibition (GI50) is 44 µM.
To `O=S(=O)(NCC1(c2cccs2)CCCC1)c1ccc(OC(F)(F)F)cc1` [Compound 61, N-((1-(thiophen-2-yl)cyclopentyl)methyl)-4-(trifluoromethoxy)benzenesulfonamide] belongs 38 µM; to `O=S(=O)(NCc1cc(Cl)ccc1OC(F)F)c1ccc(OC(F)(F)F)cc1` [Compound 62, N-(5-chloro-2-(difluoromethoxy)benzyl)-4-(trifluoromethoxy)benzenesulfonamide], 70 µM; to `CC(C)CN(CCNS(=O)(=O)c1ccc(OC(F)(F)F)cc1)CC(C)C` [Compound 63, N-(2-(diisobutylamino)ethyl)-4-(trifluoromethoxy)benzenesulfonamide], 60 µM.
The value for `CCCCN(CCCNS(=O)(=O)c1ccc(OC(F)(F)F)cc1)Cc1ccccc1` [Compound 64, N-(3-(benzyl(butyl)amino)propyl)-4-(trifluoromethoxy)benzenesulfonamide] was 36 µM; that for `CC(C)(C)OC(=O)N1CC(F)(F)CC1CNS(=O)(=O)c1ccc(OC(F)(F)F)cc1` (stereo not shown) [Compound 65, Tert-butyl 4,4-difluoro-2-(((4-(trifluoromethoxy)phenyl)sulfonamido)methyl)pyrrolidine-1-carboxylate] was 43 µM.
In the case of `CC[C@H](NS(=O)(=O)c1ccc(OC(F)(F)F)cc1)c1cc(F)ccc1F` [Compound 66, (S)—N-(1-(2,5-difluorophenyl)propyl)-4-(trifluoromethoxy)benzenesulfonamide], it took 35 µM to inhibit growth by half (GI50).
The value for `CC(Cc1c(Cl)cccc1Cl)NS(=O)(=O)c1ccc(OC(F)(F)F)cc1` (stereo not shown) [Compound 67, N-(1-(2,6-dichlorophenyl)propan-2-yl)-4-(trifluoromethoxy)benzenesulfonamide] was 50 µM; that for `CCOC(=O)CC(NS(=O)(=O)c1ccc(OC(F)(F)F)cc1)c1ccc(OC(C)C)c(OC)c1` (stereo not shown) [Compound 68, Ethyl 3-(4-isopropoxy-3-methoxyphenyl)-3-((4-(trifluoromethoxy)phenyl)sulfonamido)propanoate] was 72 µM.
To `O=S(=O)(NC(c1cc(Cl)cc(Cl)c1)C1CCCCC1)c1ccc(OC(F)(F)F)cc1` (stereo not shown) [Compound 69, N-(cyclohexyl(3,5-dichlorophenyl)methyl)-4-(trifluoromethoxy)benzenesulfonamide] belongs 9 µM; to `CC(NS(=O)(=O)c1ccc(OC(F)(F)F)cc1)C1(c2ccc(Br)cc2)CC1` (stereo not shown) [Compound 70, N-(1-(1-(4-bromophenyl)cyclopropyl)ethyl)-4-(trifluoromethoxy)benzenesulfonamide], 25 µM.
The value for `C=CCCC(NS(=O)(=O)c1ccc(OC(F)(F)F)cc1)c1ccc(C(F)(F)F)cc1` (stereo not shown) [Compound 71, 4-(trifluoromethoxy)-N-(1-(4-(trifluoromethyl)phenyl)pent-4-en-1-yl)benzenesulfonamide] was 20 µM.
The compound `O=S(=O)(NC(CC1CC1)c1cc(F)cc(Br)c1)c1ccc(OC(F)(F)F)cc1` (stereo not shown) [Compound 72, N-(1-(3-bromo-5-fluorophenyl)-2-cyclopropylethyl)-4-(trifluoromethoxy)benzenesulfonamide] had a GI50 of 17 µM.
The value for `CCC[C@@H](NS(=O)(=O)c1ccc(OC(F)(F)F)cc1)c1ccc2c(c1)OCO2` [Compound 73, (R)—N-(1-(benzo[d][1,3]dioxol-5-yl)butyl)-4-(trifluoromethoxy)benzenesulfonamide] was 38 µM; that for `Cc1ccc(CNS(=O)(=O)c2ccc(OC(F)(F)F)cc2)c(OCC(C)C)c1` [Compound 74, N-(2-isobutoxy-4-methylbenzyl)-4-(trifluoromethoxy)benzenesulfonamide] was 60 µM.
The value for `Cc1ccc(CNS(=O)(=O)c2ccc(OC(F)(F)F)cc2)c(OCC2CC2)c1` [Compound 75, N-(2-(cyclopropylmethoxy)-4-methylbenzyl)-4-(trifluoromethoxy)benzenesulfonamide] was 30 µM.
The value for `CCOc1ccccc1CNS(=O)(=O)c1ccc(OC(F)(F)F)cc1` [Compound 76, N-(2-ethoxybenzyl)-4-(trifluoromethoxy)benzenesulfonamide] was 60 µM; that for `CC(C)(C)OC(=O)N1CC(CNS(=O)(=O)c2ccc(OC(F)(F)F)cc2)OC(C)(C)C1` (stereo not shown) [Compound 77, Tert-butyl 2,2-dimethyl-6-(((4-(trifluoromethoxy)phenyl)sulfonamido)methyl)morpholine-4-carboxylate] was 20 µM.
`CC(C)(C)Oc1ccccc1CNS(=O)(=O)c1ccc(OC(F)(F)F)cc1` [Compound 78, N-(2-(tert-butoxy)benzyl)-4-(trifluoromethoxy)benzenesulfonamide]: halving of growth (GI50) required 46 µM.
